Source: paper PMC3956125 (Molecular cancer therapeutics, 2013)

Columns and labels:
A498 cells [1] = assay: 3H-thymidine incorporation proliferation assay; format: cell-based, human
A498 cells [2] = assay: Western blot / immunofluorescence of marker proteins; format: cell-based, human
CYP1A2 = biological target: T1, CYP1A2 (Homo sapiens, UniProt P05177); assay: multiple CYP assay in human liver microsomes; details: 10 μM
T1 sequence (P05177 1-516): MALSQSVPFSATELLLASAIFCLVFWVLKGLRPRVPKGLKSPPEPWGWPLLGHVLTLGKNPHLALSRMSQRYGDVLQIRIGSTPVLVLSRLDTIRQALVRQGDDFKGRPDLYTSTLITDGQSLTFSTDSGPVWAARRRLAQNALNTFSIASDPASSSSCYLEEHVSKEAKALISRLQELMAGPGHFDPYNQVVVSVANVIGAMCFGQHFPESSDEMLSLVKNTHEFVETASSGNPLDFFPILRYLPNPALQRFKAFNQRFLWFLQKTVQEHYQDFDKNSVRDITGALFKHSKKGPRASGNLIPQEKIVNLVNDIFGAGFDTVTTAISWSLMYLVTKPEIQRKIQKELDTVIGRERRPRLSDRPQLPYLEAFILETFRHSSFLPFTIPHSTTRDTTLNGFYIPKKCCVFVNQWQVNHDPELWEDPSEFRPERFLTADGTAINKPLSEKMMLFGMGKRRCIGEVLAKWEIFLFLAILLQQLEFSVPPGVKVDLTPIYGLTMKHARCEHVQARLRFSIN

786-O cells [3] = assay: Annexin-FITC/PI apoptosis assay; format: cell-based, human; details: 48 hours
786-O tumor model = assay: subcutaneous xenograft anti-tumor activity; format: in vivo, mouse; details: 4 weeks
A498 cells [4] = assay: intracellular glucose measurement; format: cell-based, human; details: 24 hours
[5] = pharmacokinetic analysis of plasma levels; details: Sprague-Dawley rats
A498 cells [6] = assay: cell cycle analysis by flow cytometry; format: cell-based, human; details: increasing concentrations, 24 hours
CYP2B6 = biological target: T2, CYP2B6 (Homo sapiens, UniProt P20813); assay: multiple CYP assay in human liver microsomes; details: 10 μM
T2 sequence (P20813 1-491): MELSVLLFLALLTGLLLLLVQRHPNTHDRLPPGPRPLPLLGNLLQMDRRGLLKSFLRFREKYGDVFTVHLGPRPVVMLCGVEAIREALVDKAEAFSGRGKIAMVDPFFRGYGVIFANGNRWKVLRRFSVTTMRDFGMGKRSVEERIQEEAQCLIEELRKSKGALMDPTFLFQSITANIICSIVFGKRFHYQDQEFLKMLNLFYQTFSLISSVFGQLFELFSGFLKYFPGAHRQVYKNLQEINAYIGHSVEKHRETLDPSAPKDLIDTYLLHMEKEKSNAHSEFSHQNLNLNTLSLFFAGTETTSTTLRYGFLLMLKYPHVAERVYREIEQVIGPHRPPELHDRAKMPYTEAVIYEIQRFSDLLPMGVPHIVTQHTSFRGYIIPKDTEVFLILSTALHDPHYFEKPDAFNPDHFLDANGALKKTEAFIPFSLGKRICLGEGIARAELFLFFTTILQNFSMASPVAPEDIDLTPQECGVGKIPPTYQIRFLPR

hERG = hERG (Homo sapiens, UniProt Q12809); assay: hERG inhibition; format: cell-based; details: read-out: IC50 for hERG inhibition; patch-clamp
Chain of hERG (Q12809 whole entry): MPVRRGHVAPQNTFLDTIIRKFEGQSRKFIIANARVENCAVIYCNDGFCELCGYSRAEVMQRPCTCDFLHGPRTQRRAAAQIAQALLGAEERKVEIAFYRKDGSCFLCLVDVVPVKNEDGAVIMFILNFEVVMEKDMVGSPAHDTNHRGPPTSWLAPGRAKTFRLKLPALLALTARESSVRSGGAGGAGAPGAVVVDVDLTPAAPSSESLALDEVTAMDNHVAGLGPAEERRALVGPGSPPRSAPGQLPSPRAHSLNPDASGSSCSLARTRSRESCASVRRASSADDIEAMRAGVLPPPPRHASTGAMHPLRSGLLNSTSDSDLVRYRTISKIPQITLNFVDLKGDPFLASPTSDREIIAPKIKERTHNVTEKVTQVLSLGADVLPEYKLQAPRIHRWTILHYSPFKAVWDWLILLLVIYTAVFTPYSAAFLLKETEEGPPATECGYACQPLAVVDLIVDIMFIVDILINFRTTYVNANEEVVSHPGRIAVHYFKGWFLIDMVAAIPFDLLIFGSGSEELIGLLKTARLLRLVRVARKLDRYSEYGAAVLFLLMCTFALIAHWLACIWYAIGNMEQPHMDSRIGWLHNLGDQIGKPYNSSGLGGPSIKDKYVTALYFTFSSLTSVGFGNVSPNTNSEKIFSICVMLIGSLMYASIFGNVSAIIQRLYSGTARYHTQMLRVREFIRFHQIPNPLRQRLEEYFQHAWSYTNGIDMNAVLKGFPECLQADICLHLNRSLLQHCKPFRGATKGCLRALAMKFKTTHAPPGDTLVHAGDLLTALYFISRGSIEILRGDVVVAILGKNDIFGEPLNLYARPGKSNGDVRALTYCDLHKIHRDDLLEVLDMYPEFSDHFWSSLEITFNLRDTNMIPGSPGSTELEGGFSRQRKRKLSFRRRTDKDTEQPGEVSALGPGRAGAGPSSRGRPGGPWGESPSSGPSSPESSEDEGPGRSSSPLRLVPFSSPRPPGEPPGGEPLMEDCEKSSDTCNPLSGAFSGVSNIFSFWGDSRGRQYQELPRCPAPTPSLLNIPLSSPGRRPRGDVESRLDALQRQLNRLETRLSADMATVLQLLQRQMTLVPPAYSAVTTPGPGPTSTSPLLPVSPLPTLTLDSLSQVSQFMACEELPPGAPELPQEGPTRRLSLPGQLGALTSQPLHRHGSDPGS

CYP2C9 = CYP2C9 (Homo sapiens, UniProt P11712); assay: multiple CYP assay in human liver microsomes; details: 10 μM
Chain of CYP2C9 (P11712 whole entry): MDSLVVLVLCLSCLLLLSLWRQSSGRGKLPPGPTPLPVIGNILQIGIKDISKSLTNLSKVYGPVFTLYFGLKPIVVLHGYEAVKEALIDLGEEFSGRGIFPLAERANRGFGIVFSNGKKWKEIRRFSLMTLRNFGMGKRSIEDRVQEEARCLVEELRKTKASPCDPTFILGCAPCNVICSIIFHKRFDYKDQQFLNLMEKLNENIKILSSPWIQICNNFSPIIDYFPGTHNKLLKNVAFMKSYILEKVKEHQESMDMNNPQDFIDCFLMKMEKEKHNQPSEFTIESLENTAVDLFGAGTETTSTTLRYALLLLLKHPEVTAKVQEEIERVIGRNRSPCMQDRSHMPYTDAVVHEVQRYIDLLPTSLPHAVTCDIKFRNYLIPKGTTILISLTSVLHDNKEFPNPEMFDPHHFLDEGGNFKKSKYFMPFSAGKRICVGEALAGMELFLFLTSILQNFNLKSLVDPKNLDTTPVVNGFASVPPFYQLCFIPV

[7] = test system: pancreatic and ovarian cancer cells; details: cited from earlier work
SKOV3 ovarian cancer = details: SKOV3 xenograft; cited from earlier work
metabolic stability = details: human liver microsomes, after 60 min of incubation
786-O cells [8] = assay: 3H-thymidine incorporation proliferation assay; format: cell-based, human
CYP2C19 = CYP2C19 (Homo sapiens, UniProt P33261); assay: multiple CYP assay in human liver microsomes; details: 10 μM
Chain of CYP2C19 (P33261 whole entry): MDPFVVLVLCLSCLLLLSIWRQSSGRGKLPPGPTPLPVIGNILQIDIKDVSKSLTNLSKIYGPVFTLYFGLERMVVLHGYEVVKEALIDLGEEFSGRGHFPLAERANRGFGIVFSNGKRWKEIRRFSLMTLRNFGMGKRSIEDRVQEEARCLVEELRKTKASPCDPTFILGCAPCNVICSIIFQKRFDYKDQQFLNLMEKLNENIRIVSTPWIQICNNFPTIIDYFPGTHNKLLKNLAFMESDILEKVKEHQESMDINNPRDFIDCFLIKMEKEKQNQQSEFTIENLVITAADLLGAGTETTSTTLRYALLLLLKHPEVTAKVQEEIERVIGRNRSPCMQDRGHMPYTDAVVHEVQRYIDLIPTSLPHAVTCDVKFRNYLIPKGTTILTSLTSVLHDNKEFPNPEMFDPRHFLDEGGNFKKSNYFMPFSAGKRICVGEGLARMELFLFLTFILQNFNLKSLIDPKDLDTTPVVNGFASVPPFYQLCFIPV

CYP3A4 = CYP3A4 (Homo sapiens, UniProt P08684); assay: multiple CYP assay in human liver microsomes; details: 10 μM
Chain of CYP3A4 (P08684 whole entry): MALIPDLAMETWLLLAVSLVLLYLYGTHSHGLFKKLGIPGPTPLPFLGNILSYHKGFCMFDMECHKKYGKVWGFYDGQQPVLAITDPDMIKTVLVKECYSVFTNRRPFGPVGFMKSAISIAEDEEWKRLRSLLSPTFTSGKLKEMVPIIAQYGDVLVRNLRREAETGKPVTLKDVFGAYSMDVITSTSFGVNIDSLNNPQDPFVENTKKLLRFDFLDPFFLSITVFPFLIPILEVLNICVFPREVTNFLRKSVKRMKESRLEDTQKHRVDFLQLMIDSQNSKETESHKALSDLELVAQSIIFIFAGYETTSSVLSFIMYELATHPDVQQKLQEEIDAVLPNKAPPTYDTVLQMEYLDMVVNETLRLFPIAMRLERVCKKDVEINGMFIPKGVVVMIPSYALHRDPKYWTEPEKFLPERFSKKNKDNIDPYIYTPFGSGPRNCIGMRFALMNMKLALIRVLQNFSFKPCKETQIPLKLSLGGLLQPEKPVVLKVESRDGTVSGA

CYP2D6 = CYP2D6 (Homo sapiens, UniProt P10635); assay: multiple CYP assay in human liver microsomes; details: 10 μM
Chain of CYP2D6 (P10635 whole entry): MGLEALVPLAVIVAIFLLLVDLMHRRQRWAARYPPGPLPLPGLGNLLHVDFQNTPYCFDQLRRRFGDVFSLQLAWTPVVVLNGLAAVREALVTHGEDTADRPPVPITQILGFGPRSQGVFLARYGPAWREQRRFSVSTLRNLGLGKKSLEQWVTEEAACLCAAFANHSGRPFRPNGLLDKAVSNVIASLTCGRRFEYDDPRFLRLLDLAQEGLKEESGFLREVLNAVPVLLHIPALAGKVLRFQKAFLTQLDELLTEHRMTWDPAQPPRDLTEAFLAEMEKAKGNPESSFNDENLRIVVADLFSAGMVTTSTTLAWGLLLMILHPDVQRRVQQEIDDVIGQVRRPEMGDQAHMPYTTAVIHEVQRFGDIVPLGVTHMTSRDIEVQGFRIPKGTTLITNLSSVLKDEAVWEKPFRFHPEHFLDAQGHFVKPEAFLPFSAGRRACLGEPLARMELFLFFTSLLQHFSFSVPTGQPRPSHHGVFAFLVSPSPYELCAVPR

786-O cells [9] = assay: intracellular glucose measurement; format: cell-based, human; details: 24 hours
A498 tumor model = assay: subcutaneous xenograft anti-tumor activity; format: in vivo, mouse; details: 4 weeks
A498 cells [10] = assay: Annexin-FITC/PI apoptosis assay; format: cell-based, human; details: 48 hours
panel of 320 kinases = assay: kinase selectivity profile, single dose; format: biochemical
786-O cells [11] = assay: cell cycle analysis by flow cytometry; format: cell-based, human; details: increasing concentrations, 24 hours
786-O cells [12] = assay: Western blot / immunofluorescence of marker proteins; format: cell-based, human
[13] = 20 mg/kg i.p. three times a week, p<0.05
[14] = tumor tissue sections, 20 mg/kg i.p.

Cn1cc(C2=C(c3coc4ccc(F)cc34)C(=O)NC2=O)c2cc3c(cc21)OCO3 [9-ING-41]
inhibition in proliferation (A498 cells [1]; 500 nM, 72 hours, A498): ~ 40%
inhibition of proliferation (A498 cells [1]; 1000 nM, 72 hours, A498): almost complete inhibition
IC50 (A498 cells [1]; read-out: cell growth inhibition IC50, A498): < 1 µM
phosphorylation of AMPK-α and AMPK-β (A498 cells [2]; 24-48 hours, A498, Western blot): increase in phosphorylation
cyclin D1 protein expression (A498 cells [2]; 24 hours, A498, Western blot): down-regulated
Id-1 expression (A498 cells [2]; 48 hours, A498, Western blot): decreased
Ksp-cadherin expression (A498 cells [2]; 48 hours, A498, Western blot): dose-dependent increase
LC3B levels (autophagy) (A498 cells [2]; A498, Western blot and immunofluorescence): increased levels
CYP activity (CYP1A2): ≥ 50 % of the control
percentage of early apoptotic cells (786-O cells [3]; 1000 nM, 786-O (DMSO 5.54%)): 11.6%
induction of apoptosis (786-O cells [3]; 786-O): No significant induction of apoptosis
tumor growth vs control group (786-O tumor model; [13]): significant reduction of tumor growth
abundance of Ki67-positive nuclei vs control group (786-O tumor model; [14]): significantly lower
intracellular glucose (A498 cells [4]): dose-dependent increase
elimination half-life [5]: 4.85 h
volumes of distribution [5]: ≥ 10 L/kg
fraction of cells in the S phase (A498 cells [6]): decreased significantly
CYP activity (CYP2B6): ≥ 50 % of the control
IC50 (hERG): 21 µM
CYP activity (CYP2C9): ≥ 50 % of the control
antiproliferative activity [7]: potent antiproliferative agent
tumor progression in vivo (SKOV3 ovarian cancer): attenuate tumor progression
parent compound remained (metabolic stability): 78.9%
inhibition in proliferation (786-O cells [8]; 500 nM, 72 hours): ~ 40%
inhibition of proliferation (786-O cells [8]; 1000 nM, 72 hours): almost complete inhibition
IC50 (786-O cells [8]; read-out: cell growth inhibition IC50): < 1 µM
CYP activity (CYP2C19): ≥ 50 % of the control
CYP activity (CYP3A4): 32 % of the control
CYP activity (CYP2D6): ≥ 50 % of the control
intracellular glucose (786-O cells [9]): dose-dependent increase
tumor growth vs control group (A498 tumor model; [13]): significant reduction of tumor growth
abundance of Ki67-positive nuclei vs control group (A498 tumor model; [14]): significantly lower
induction of apoptosis (A498 cells [10]): No significant induction of apoptosis
number of kinases with less than 50% remaining activity (panel of 320 kinases; 10 μM single dose, duplicates, panel of 320 kinases): 35
discrimination between GSK-3α and GSK-3β (panel of 320 kinases; SI Table S1, 10 μM): inhibits them equally
fraction of cells in the S phase (786-O cells [11]): decreased significantly
phosphorylation of AMPK-α and AMPK-β (786-O cells [12]; 24-48 hours, Western blot): increase in phosphorylation
cyclin D1 protein expression (786-O cells [12]; 24 hours, Western blot): down-regulated
Id-1 expression (786-O cells [12]; 48 hours, Western blot): decreased
Ksp-cadherin expression (786-O cells [12]; 48 hours, Western blot): dose-dependent increase
LC3B levels (autophagy) (786-O cells [12]; Western blot and immunofluorescence): increased levels

GSK-3β siRNA: Qiagen siRNA against GSK-3β, target sequence 5'-CCCAAATGTCAAACTACCAAA-3' (sense CAAAUGUCAAACUACCAAATT; antisense UUUGGUAGUUUGACAUUUGGG; chemistry not given here) [reference compound]
inhibition of proliferation (A498 cells [1]; siRNA 100 nM, 72 hours, A498, p<0.01): slight yet significant inhibition
inhibition of proliferation (786-O cells [8]; siRNA 100 nM, 72 hours, p<0.01): slight yet significant inhibition
